The text below walks through data of patent publication US9688624B2, “DP2 antagonist and uses thereof” (Brickell Biotech, Inc., priority 2010, dated 2017).

Data set [1] in a line: Metabolites of Compound 1 (active metabolites). How it is done: Compound 1 metabolites formed during incubation of Compound 1 with rat, dog, and human liver microsomes, rat and human hepatocytes, as well as those generated in vivo and isolated from rat bile and rat and dog plasma have been investigated. Authentic standards of the majority of the metabolites have been chemically synthesized. The identity of the in vitro and in vivo metabolites were confirmed by comparison with the authentic standard and/or by the fragmentation pattern observed following LC-MS/MS analysis.

Data set [2] has as its target CYP2C19 (Homo sapiens (Human), UniProt P33261). The experiment in a line: Extracellular cytochrome P450 inhibition (microsomes). The note with it: 2C19, mephenytoin 4′-hydroxylation.

One may read the IC50 as the concentration that inhibits the measured activity by half.

Chain of CYP2C19 (P33261 whole entry): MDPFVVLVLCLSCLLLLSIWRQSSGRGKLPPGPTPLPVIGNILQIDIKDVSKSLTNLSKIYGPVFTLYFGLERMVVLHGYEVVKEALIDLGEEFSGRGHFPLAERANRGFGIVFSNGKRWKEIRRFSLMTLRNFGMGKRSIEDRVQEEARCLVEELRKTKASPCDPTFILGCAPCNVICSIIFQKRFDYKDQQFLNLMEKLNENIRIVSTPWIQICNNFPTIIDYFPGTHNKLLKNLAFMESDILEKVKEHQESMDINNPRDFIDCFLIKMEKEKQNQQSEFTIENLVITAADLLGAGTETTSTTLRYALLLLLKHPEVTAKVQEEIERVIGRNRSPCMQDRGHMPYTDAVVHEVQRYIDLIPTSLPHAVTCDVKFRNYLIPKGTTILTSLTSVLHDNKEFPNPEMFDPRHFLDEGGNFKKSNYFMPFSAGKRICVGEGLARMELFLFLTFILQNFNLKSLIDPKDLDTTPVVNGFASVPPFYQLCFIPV

Take `CC(C)(C)SCc1cc(NC(=O)C(C)(C)C)ccc1Oc1cc(CC(=O)O)ccc1O` [Compound M3, 2-(3-(2-(tert-butylthiomethyl)-4-pivalamidophenoxy)-4-hydroxyphenyl)acetic acid]: in data set [1], the activity of metabolite result is “active”.

Consider `CC(C)(C)C(=O)Nc1ccc(Oc2cc(CC(=O)O)ccc2O)c(C[S+]([O-])C(C)(C)C)c1` (centres unmarked) [Compound M5, 2-(3-(2-(tert-butylsulfinylmethyl)-4-pivalamidophenoxy)-4-hydroxyphenyl)acetic acid], for which, in data set [1], the activity of metabolite entry is given as “active”.

`CCC1(c2ccccc2)C(=O)NC(=O)N(Cc2ccccc2)C1=O` (single isomer, unassigned; (-)) [(-)-N-3-benzyl-phenobarbital, reference compound]: the half-maximal inhibitory concentration (IC50) in data set [2] came to 8.7 µM.

In the case of `COc1ccc(CC(=O)O)cc1Oc1ccc(NC(=O)C(C)(C)C)cc1CS(=O)(=O)C(C)(C)C` [Compound M2, 2-(3-(2-(tert-butylsulfonylmethyl)-4-pivalamidophenoxy)-4-methoxyphenyl)acetic acid], the activity of metabolite result in data set [1] is reported as “active”.

On to `COc1ccc(CC(=O)O)cc1Oc1ccc(NC(=O)C(C)(C)C)cc1C[S+]([O-])C(C)(C)C` (centres unmarked) [Compound M1, 2-(3-(2-(tert-butylsulfinylmethyl)-4-pivalamidophenoxy)-4-methoxyphenyl)acetic acid], for which, in data set [1], the activity of metabolite result is given as “active”.
